Values after ≈ are worked out from the molar mass of the structure shown. Like-named read-outs stand apart in the source and are kept apart here. Non-standard residues stand in square brackets, D forms with d. Residues, ends and D or L forms follow the SMILES beside them. ξ: configuration not given here. *: point of attachment. X2 = CCCCCCCCCCCCCCCC(=O)OCC(COC(=O)CCC(=O)*)OC(=O)CCCCCCCCCCCCCCC; X1 = CCCCCCCCCCCCCCCC(=O)OCC(C*)OC(=O)CCCCCCCCCCCCCCC; Palmitoyl = CCCCCCCCCCCCCCCC(=O)*; ξK = NCCCCC(N)C(=O)O; ξC = NC(CS)C(=O)O
Tests used:
E. coli = test: Antibiogram of ESKAPE pathogens; type: cell-based; conditions: Escherichia coli, column assigned by order in flattened table
Source text: (§1) Supplementary Table 1. Antibiogram of ESKAPE pathogens used in this study.
(§2) Bacteria susceptible to all (blue color) or intermediate/resistant to at least one (red color) of antibiotics per class following the EUCAST breakpoints. Black color is shown if the susceptibility to agents in that class is not assessed. Values are minimal inhibition concentrations (MIC) in µg/ml or for Chloramphenicol in diameter (mm). […]

E. faecium = test: microbe, parasite or virus in culture; conditions: for MIC: Enterococcus faecium
Source text: as §1, §2

[1] = test system: multidrug resistant bacteria belonging to the ESKAPE pathogen panel; type: cell-based; conditions: broth microdilution, ESKAPE panel
Description: Bactericidal activity was assessed by broth microdilution assay. […] After incubation, 100 µl of 6% TSB (w/v) were added and absorbance was measured at 600 nm (Tecan, Switzerland) and monitored for 18 h. Afterward, 100 µl per well were plated on LB agar to determine the numbers of viable bacteria microbiologically. Bactericidal activity is expressed as the LC99.9, the lowest concentration that killed ≥99.9 % of bacteria.

[2] = test system: several pathogenic bacteria; test: Radial diffusion assay, all tested strains; type: cell-based
Description: (§3) Antimicrobial activity was analyzed by radial diffusion assay. Log-phase bacteria were cultivated for up to 18 h in TSB (TSB, Becton Dickinson, USA), washed and diluted to 4 × 10^6 CFU in 10 ml agar. Bacteria were incubated in 10 ml of 10 mM sodium phosphate, pH 7.4, containing 0.3 mg/ml of TSB powder and 1% (w/v) low EEO-agarose (AppliChem). 1 µg of each lipopeptide was pipetted into punched wells in a final volume of 4 µl and diffused into the gel for 3 h at 37 °C. After that, a nutrient-rich gel with 6% TSB (w/v) and 1% agarose in 10 mM sodium phosphate buffer was poured on top of the first gel and incubated for up to 24 h at 37 °C. Then the diameter of inhibition zones was measured.

S. aureus ATCC 25923 = type: cell-based; conditions: for Fold change in MIC: relative to MIC of first passage, Mean
Description: Development of resistance to the peptides was assessed with S. aureus and S. Typhimurium. […] Bacteria were cultured overnight at 37 °C at 150 rpm in TSB. Bacteria were washed twice with 10 mM sodium phosphate buffer containing 1% (w/v) TSB. […] After incubation, 100 µl of 6% TSB (w/v) was added and plates incubated in a humidified atmosphere for 21 h at 37 °C and 150 rpm.
The MIC, the lowest concentration of peptide/antibiotic that caused a lack of visible bacterial growth, was determined for each bacterial species. […] This was repeated for 25 passages.

ESKAPE pathogens = test: organism not typed
Source text: as §1, §2

S. Typhimurium = type: cell-based; conditions: for diameter of inhibition zone: 1 µg peptide/well, 2.5 mm = empty well
Description: as §3

C. rodentium = type: cell-based; conditions: 1 µg peptide/well, 2.5 mm = empty well
Description: as §3

P. aeruginosa = type: cell-based; conditions: 1 µg peptide/well, 2.5 mm = empty well
Description: as §3

S. aureus [3] = type: cell-based; conditions: 1 µg peptide/well, 2.5 mm = empty well
Description: as §3

S. aureus [4] = test: Antibiogram of ESKAPE pathogens; type: cell-based; conditions: Staphylococcus aureus
Source text: as §1, §2

Molecule: NC[C@H]1O[C@H](O[C@H]2[C@H](O)[C@@H](O[C@H]3O[C@H](CO)[C@@H](O)[C@H](N)[C@H]3O)[C@H](N)C[C@@H]2N)[C@H](N)C[C@@H]1O [Tobramycin]
- MIC (E. coli; strain DSM8695): ≤ 1 µg/mL

Molecule: CNC(C)C1CCC(N)C(OC2C(N)CC(N)C(OC3OCC(C)(O)C(NC)C3O)C2O)O1 (centres unmarked) [Gentamicin]
- MIC (E. coli; strain DSM8695): ≤ 1 µg/mL

Molecule: CCN1CCN(C(=O)N[C@@H](C(=O)N[C@@H]2C(=O)N3[C@@H]2SC(C)(C)[C@@H]3C(=O)O)c2ccccc2)C(=O)C1=O [Piperacillin]
- MIC (E. coli; strain DSM8695): ≤ 4 µg/mL

Molecule: CCCCCCCCCC(=O)N[C@@H](Cc1c[nH]c2ccccc12)C(=O)N[C@H](CC(N)=O)C(=O)N[C@@H](CC(=O)O)C(=O)N[C@@H]1C(=O)NCC(=O)N[C@@H](CCCN)C(=O)N[C@@H](CC(=O)O)C(=O)N[C@H](C)C(=O)N[C@@H](CC(=O)O)C(=O)NCC(=O)N[C@H](CO)C(=O)N[C@@H]([C@H](C)CC(=O)O)C(=O)N[C@@H](CC(=O)c2ccccc2N)C(=O)O[C@@H]1C [Daptomycin]
- MIC (antibiogram) (E. faecium): 4 µg/mL (≈ 2.47 µM)

Molecule: CO/N=C(\C(=O)N[C@@H]1C(=O)N2C(C(=O)O)=C(COC(N)=O)CS[C@H]12)c1ccco1 [Cefuroxim]
- MIC (E. coli; strain DSM682): ≥ 64 µg/mL

Molecule: CCCCCCCCCCCCCCCC(=O)OCC(COC(=O)CCC(=O)N[C@@H](CCCNC(=N)N)C(=O)NCC(=O)N[C@@H](CCCCN)C(=O)N[C@@H](C)C(=O)N[C@@H](CCCCN)C(=O)N[C@@H](CS)C(=O)N[C@@H](CS)C(=O)N[C@@H](CCCCN)C(=O)O)OC(=O)CCCCCCCCCCCCCCC (some centres unmarked) [Pam-1] (X2-RGKAKCCK-OH; C-terminus assumed)
- bactericidal activity (in words) [1]: no or low bactericidal activity
- antimicrobial activity (in words) [2]: generally inactive

Molecule: CO[C@H]1/C=C/O[C@@]2(C)Oc3c(C)c(O)c4c(O)c(c(/C=N/N5CCN(C)CC5)c(O)c4c3C2=O)NC(=O)/C(C)=C\C=C\[C@H](C)[C@H](O)[C@@H](C)[C@@H](O)[C@@H](C)[C@H](OC(C)=O)[C@@H]1C [Rifampicin, reference compound]
- Fold change in MIC (S. aureus ATCC 25923; Day (passage) 0): 1.0
- Fold change in MIC (S. aureus ATCC 25923; Day (passage) 1): 0.8
- Fold change in MIC (S. aureus ATCC 25923; Day (passage) 2): 1.0
- Fold change in MIC (S. aureus ATCC 25923; Day (passage) 3): 1.0
- Fold change in MIC (S. aureus ATCC 25923; Day (passage) 4): 1.7
- Fold change in MIC (S. aureus ATCC 25923; Day (passage) 5): 3.7
- Fold change in MIC (S. aureus ATCC 25923; Day (passage) 6): 43.3
- Fold change in MIC (S. aureus ATCC 25923; Day (passage) 7): 87.3
- Fold change in MIC (S. aureus ATCC 25923; Day (passage) 8): 163.3
- Fold change in MIC (S. aureus ATCC 25923; Day (passage) 9): 348.0
- Fold change in MIC (S. aureus ATCC 25923; Day (passage) 10): 768.7
- Fold change in MIC (S. aureus ATCC 25923; Day (passage) 11): 1366.0
- Fold change in MIC (S. aureus ATCC 25923; Day (passage) 12): 2731.4
- Fold change in MIC (S. aureus ATCC 25923; Day (passage) 13): 2732.0
- Fold change in MIC (S. aureus ATCC 25923; Day (passage) 14): 3200.7
- Fold change in MIC (S. aureus ATCC 25923; Day (passage) 15): 4267.4
- Fold change in MIC (S. aureus ATCC 25923; Day (passage) 16): 4267.4
- Fold change in MIC (S. aureus ATCC 25923; Day (passage) 17): 4268.0
- Fold change in MIC (S. aureus ATCC 25923; Day (passage) 18): 4267.4
- Fold change in MIC (S. aureus ATCC 25923; Day (passage) 19): 2733.4
- Fold change in MIC (S. aureus ATCC 25923; Day (passage) 20): 2731.5
- Fold change in MIC (S. aureus ATCC 25923; Day (passage) 21): 2731.4
- Fold change in MIC (S. aureus ATCC 25923; Day (passage) 22): 2731.4
- Fold change in MIC (S. aureus ATCC 25923; Day (passage) 23): 2733.4
- Fold change in MIC (S. aureus ATCC 25923; Day (passage) 24): 2741.4
- Fold change in MIC (S. aureus ATCC 25923; Day (passage) 25): 2816.0
- increase of MIC (S. aureus ATCC 25923; after 15 passages): ≥ 4096 fold

Molecule: CN(C)[C@@H]1C(=O)C(C(N)=O)=C(O)[C@@]2(O)C(=O)C3=C(O)c4c(O)cccc4[C@@](C)(O)[C@H]3C[C@@H]12 [Tetracyclin]
- MIC (antibiogram) (ESKAPE pathogens; one strain of A. baumannii, P. aeruginosa or E. coli, not assignable): ≥ 256 µg/mL

Molecule: RGKAKCCK [Octapeptide, the C-terminal eight amino acids of human β-defensin 1]
- diameter of inhibition zone (S. Typhimurium; experiment 1 of 3): 2.5 mm
- diameter of inhibition zone (S. Typhimurium; experiment 2 of 3): 2.5 mm
- diameter of inhibition zone (S. Typhimurium; experiment 3 of 3): 2.5 mm
- inhibition of S. Typhimurium growth (in words) (S. Typhimurium; radial diffusion assay): failed to inhibit
- diameter of inhibition zone (C. rodentium; experiment 1 of 3): 5.5 mm
- diameter of inhibition zone (C. rodentium; experiment 2 of 3): 5 mm
- diameter of inhibition zone (C. rodentium; experiment 3 of 3): 5.5 mm
- diameter of inhibition zone (P. aeruginosa; experiment 1 of 3): 3.5 mm
- diameter of inhibition zone (P. aeruginosa; experiment 2 of 3): 4 mm
- diameter of inhibition zone (P. aeruginosa; experiment 3 of 3): 4 mm
- diameter of inhibition zone (S. aureus [3]; experiment 1 of 3): 6 mm
- diameter of inhibition zone (S. aureus [3]; experiment 2 of 3): 7 mm
- diameter of inhibition zone (S. aureus [3]; experiment 3 of 3): 6.5 mm

Molecule: O=C(N[C@H](CO)[C@H](O)c1ccc([N+](=O)[O-])cc1)C(Cl)Cl [Chloramphenicol]
- diameter (antibiogram) (ESKAPE pathogens; one strain of E. faecium, S. aureus or K. pneumoniae, not assignable): 22 mm

Molecule: CC1(C)S[C@@H]2[C@H](NC(=O)[C@H](N)c3ccccc3)C(=O)N2[C@H]1C(=O)O [Ampicillin]
- MIC (E. coli; strain DSM682): ≥ 32 µg/mL
- MIC (E. coli; strain DSM8695): 8 µg/mL (≈ 22.9 µM)

Molecule: C[C@@H](O)[C@H]1C(=O)N2C(C(=O)O)=C(SCCN=CN)C[C@H]12 [Imipenem]
- MIC (E. coli; strain DSM682): 2 µg/mL (≈ 6.68 µM)
- MIC (E. coli; strain DSM8695): ≤ 0.25 µg/mL

Molecule: C[C@H]1[C@H](NC(=O)/C(=N\OC(C)(C)C(=O)O)c2csc(N)n2)C(=O)N1S(=O)(=O)O [Aztreonam]
- MIC (ESKAPE pathogens; read-out: MIC (antibiogram)): > 256 µg/mL

Molecule: CCCCCCCCCCCCCCCC(=O)NCCCCC(NC(=O)CCCCCCCCCCCCCCC)C(=O)N[C@@H](CCCNC(=N)N)C(=O)NCC(=O)N[C@@H](CCCCN)C(=O)N[C@@H](C)C(=O)N[C@@H](CCCCN)C(=O)N[C@@H](CS)C(=O)N[C@@H](CS)C(=O)N[C@@H](CCCCN)C(=O)O (some centres unmarked) [Pam-5] (Palmitoyl-[ξK](Palmitoyl)RGKAKCCK-OH; C-terminus assumed)
- bactericidal activity (in words) [1]: moderate effects
- antimicrobial activity (in words) [2]: generally inactive

Molecule: CN[C@H](CC(C)C)C(=O)N[C@H]1C(=O)N[C@@H](CC(N)=O)C(=O)N[C@H]2C(=O)N[C@H]3C(=O)N[C@H](C(=O)N[C@H](C(=O)O)c4cc(O)cc(O)c4-c4cc3ccc4O)[C@H](O)c3ccc(c(Cl)c3)Oc3cc2cc(c3O[C@@H]2O[C@H](CO)[C@@H](O)[C@H](O)[C@H]2O[C@H]2C[C@](C)(N)[C@H](O)[C@H](C)O2)Oc2ccc(cc2Cl)[C@H]1O [Vancomycin]
- MIC (S. aureus [4]; ATCC33592, read-out: MIC (antibiogram)): 1 µg/mL (≈ 0.69 µM)
- MIC (S. aureus [4]; ATCC43300, read-out: MIC (antibiogram)): 1 µg/mL (≈ 0.69 µM)
- MIC (S. aureus [4]; DSM20231, read-out: MIC (antibiogram)): 1 µg/mL (≈ 0.69 µM)
- MIC (E. faecium; DSM2918, read-out: MIC (antibiogram)): ≥ 32 µg/mL
- MIC (E. faecium; read-out: MIC (antibiogram)): ≥ 32 µg/mL

Molecule: CCCCCCCCCCCCCCCC(=O)NC(CSCC(COC(=O)CCCCCCCCCCCCCCC)OC(=O)CCCCCCCCCCCCCCC)C(=O)N[C@@H](CCCNC(=N)N)C(=O)NCC(=O)N[C@@H](CCCCN)C(=O)N[C@@H](C)C(=O)N[C@@H](CCCCN)C(=O)N[C@@H](CS)C(=O)N[C@@H](CS)C(=O)N[C@@H](CCCCN)C(=O)O (some centres unmarked) [Pam-4] (Palmitoyl-[ξC](X1)RGKAKCCK-OH; C-terminus assumed)
- bactericidal activity (in words) [1]: no or low bactericidal activity
- antimicrobial activity (in words) [2]: generally inactive

Molecule: C[C@@H](O)[C@H]1C(=O)N2C(C(=O)O)=C(S[C@@H]3CN[C@H](C(=O)N(C)C)C3)[C@H](C)[C@H]12 [Meropenem]
- MIC (E. coli; strain DSM682): 8 µg/mL (≈ 20.9 µM)
- MIC (E. coli; strain DSM8695): ≤ 0.25 µg/mL

— paper PMC7794397, “Curbing gastrointestinal infections by defensin fragment modifications without harming commensal microbiota” (Communications Biology, 2021)
